Where two headings read alike, the source gives them in different places. Ends that are not written are not given here.
Columns and labels:
[1] = tested on: bacterial plaque; conditions: in vitro and in vivo; cited from earlier work
[2] = tested on: Streptococcus mutans; assay: disk diffusion assay on confluent S. mutans culture; format: cell-based; conditions: for antibacterial activity (zone of inhibition) against S. mutans: FIG. 4, lactoferrin, statherin and fusion peptides on disk
Text: In all panels the circle is a filter paper disk impregnated with different agents (PBS=phosphate buffered saline which is a control); LF “R”=the 11 mer of lactoferrin with arginine (R) in amino acid position 29; LF “K” the 11 mer of lactoferrin with lysine (K) in amino acid position 29. The disk containing a standard concentration of one of the agents is placed over a confluent culture of Streptococcus mutans.
In all panels the circle is a disk impregnated with different agents. The disk is placed over a confluent culture of Streptococcus mutans. […] Panel top left: Lactoferrin (timer) where the lysine is present. […] Middle and top right panel are the two statherin peptides, a 6 mer and a 15 mer. […] Panel bottom left: lactoferrin 11 mer noted as LF fused to the Statherin 6 mer. […] Panel bottom right: Lactoferrin 11 mer noted as LF fused to Statherin 15 mer. […] The two panels on the bottom show the level of interference when the LF is added to the two Statherins. The activity of the LF when the smaller Statherin peptide is fused to it is greater as compared to when the larger peptide is fused to the LF.
The first was a disk diffusion screening assay we developed in our laboratory. In that assay we grew an overnight culture of S. mutans in a broth consisting of trypticase soy and 20% sucrose added. Cells were grown overnight and then streaked to confluence on Mitis Salivarius Bacitracin (MSB) agar. In addition we took a 25 cm sterile filter paper disk and added 200 ul of either whole saliva, the saliva containing the lysine or the arginine variant of lactoferrin, allowed this saliva to dry onto the filter paper for 1 hour and then placed the filter paper containing the added protein over the center of the confluent culture of S. mutans on the MSB agar. […] This assay was used to screen for potential antimicrobial activity.
The disk diffusion assay allows for specific proteins to be added to a filter paper disk whereby the protein can then diffuse into the agar to determine antimicrobial activity. The following peptides were added to the disk; R=arginine form of Lf (FIG. 1(a)). K=lysine form of Lf (FIG. 1(a). PBS=phosphate buffered saline which is used as the control solution and to which is added either the R form or K form of Lf. In FIG. 1 below we added R form, or the K form at a concentration of 1 ug/ml to 200 ul of PBS and then added that to the surface of a 25 cm filter paper strip and allowed the strip to dry for 1 hour. We then streaked a culture of S. mutans to confluence onto a plate of trypicase soy agar containing 20% sucrose and then placed the dried disk over the center of the plate. The cultures were allowed to grow in an incubator set at 37° C. and then evaluated either at 24 or 48 hours after inoculation. […] No zone was seen on disk R/PBS or R/Saliva, where the arginine variant was substituted for the lysine variant (FIG. 3). The R and K Form of LF peptide was added at a concentration of about 15 ug/ml.

[3] = tested on: Streptococcus mutans; assay: killing of Streptococcus mutans by synthetic lactoferrin peptide; format: cell-based
[4] = tested on: oral bacteria; conditions: bacteria grown in a broth media, in-vitro; cited from earlier work
[5] = tested on: bacteria adhering to SHA; conditions: SHA treated with drug, washed, placed in a culture of bacteria; cited from earlier work
[6] = tested on: S. mutans; conditions: literature (Gibbons and Hay 1989; Shimotoyodeme et al 2006), cited from earlier work

Compound: [H]/N=C(\N/C(=N/[H])NCCCCCCNC(=N)NC(=N)Nc1ccc(Cl)cc1)Nc1ccc(Cl)cc1 [chlorhexidine]
- bacterial plaque attachment to teeth [1]: reduce bacterial plaque attachment to teeth

Compound: LF “K”: the 11 mer of lactoferrin with lysine (K) in amino acid position 29 (FQWQRNMRKVR; Active form of synthetic peptide LF11 based on human lactoferrin peptide)
- zone of inhibition of S. mutans growth around disk ([2]; FIG. 3, peptide in PBS dried on filter paper disk, 37° C., 24 or 48 hours, listed as K): zone of inhibition
- zone of inhibition of S. mutans growth around disk ([2]; FIG. 3, peptide in PBS dried on filter paper disk, 37° C., 24 or 48 hours, listed as lysine variant of Lactoferrin): clear zone
- antibacterial activity (zone of inhibition) against S. mutans [2]: inhibits the growth of S. mutans
- zone of inhibition of S. mutans growth around disk ([2]; peptide suspended in normal saliva, dried on filter paper disk): zone of inhibition
- killing of Streptococcus mutans [3]: kills Streptococcus mutans

Compound: Penicillin
- concentration effective against oral bacteria [4]: 1 µg/mL
- adherence of bacteria to treated SHA [5]: no effect

Compound: ST6: statherin peptide, a 6 mer (DSSEEK; ends and bridges not checked; UniProt P02808 20-25, looked up, fragment)
- S. mutans attachment / binding to the tooth surface [6]: also has this capacity
- antibacterial activity (zone of inhibition) against S. mutans [2]: do not have any antimicrobial activity
- antibacterial activity (zone of inhibition) against S. mutans ([2]; listed as Statherin 6 mer): no zone of inhibition

Compound: STAT-LF 6: fusion protein: lactoferrin 11 mer (LF) fused to the Statherin 6 mer (DDDEEKFQWQRNMRKVR; Synthetic fusion peptide STAT-LF6)
- antibacterial activity (zone of inhibition) against S. mutans ([2]; listed as LF and the Statherin 6 mer): most active fusion peptide
- antibacterial activity (zone of inhibition) against S. mutans ([2]; listed as LF fused to the Statherin 6): retains the activity of the Lactoferrin 11 mer
- antibacterial activity (zone of inhibition) against S. mutans ([2]; listed as LF fused to the Statherin 6 mer): retains the activity of the Lactoferrin 11 mer

Compound: Statherin: small salivary tyrosine-rich phosphoprotein containing 43 amino acids (DSSEEKFLRRIGRFGYGYGPYQPVPEQPLYPQPYQPQYQQYTF; also: phosphoprotein, sites not given here; UniProt P02808 20-62, looked up)
- S. mutans attachment / binding to the tooth surface [6]: reduce S. mutans binding to the tooth surface
- S. mutans attachment / binding to the tooth surface ([6]; listed as statherin): inhibit S. mutans attachment

From patent US8513182B2, “Natural polypeptides for oral health care” (priority 2007, dated 2013)
